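Method: 48-hour compound exposure of cells in 96-well plates, five concentrations, linear interpolation of endpoints. Abbreviation: GI50, concentration required for 50% inhibition of growth.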 Active and inactive are the calls of the source. Rule as the data show it: active = GI50 up to about 1.1 µM and inactive = higher.

Some test systems named below: DLD-1; DMS-114; HOP-18; KM-20L2; LXFL 529; M19-MEL; SNB-78; XF498; RXF 631.
Holding throughout (test): DTP human tumour cell line panel, 48 h

Turning to `COC(OC)[C@@H](C)[C@H](O)[C@](C)(O)C1OC(C)(C)OC(C(C)C=C(C)C)C1C` (stereo partly specified), the GI50 (in general, the concentration at which growth is held to half of that of the control) in the test with DLD-1 is > 100 µM (inactive); in the test on DMS-114, 94.6 µM (inactive); with HOP-18 it was > 100 µM (inactive); in the test on KM-20L2, > 100 µM (inactive); in the test on LXFL 529 it was > 100 µM (inactive); in the test on M19-MEL, > 100 µM (inactive). Also, the GI50 in the test with SNB-78 and in the test on XF498 was > 100 µM (inactive) each time.

Consider `CC(Cn1c2c3ccccc3ccc2c2oc(=O)c3ccccc3c21)N(C)C` (stereo unspecified), for which the GI50 with DLD-1, in the test with DMS-114, in the test with KM-20L2, in the test on LXFL 529, with SNB-78 and with XF498 was > 100 µM (inactive) in each case.

As to `Cc1cc(Br)ccc1NC1=CC(=O)C(=O)c2ccccc21`, the GI50 in the test on DLD-1 is > 100 µM (inactive); in the test with DMS-114, 19.8 µM (inactive); in the test with HOP-18, 16 µM (inactive); in the test on KM-20L2 it was > 100 µM (inactive); in the test on LXFL 529, 55.7 µM (inactive); in the test with M19-MEL it was 15.2 µM (inactive). For the same molecule, the GI50 is > 100 µM (inactive) in the test with SNB-78 and 31.6 µM (inactive) with XF498.

In the case of `COc1ccc2c(c1)c1ccc3c(c1n2C)C(=O)C=CC3=O`, the GI50 in the test with DLD-1 is 7.4 µM (inactive); in the test on DMS-114, 20.7 µM (inactive); in the test on HOP-18 it was 12.2 µM (inactive); in the test on KM-20L2, 38.5 µM (inactive); in the test on LXFL 529 it was 14.1 µM (inactive); with M19-MEL it was 25.4 µM (inactive). The GI50 with RXF 631 was 20 µM (inactive); in the test on SNB-78 it was 20.9 µM (inactive); in the test on XF498, 17.2 µM (inactive).

For `COC(=O)C(c1ccc(OC)cc1)N1C(=O)[C@@H](NC(=O)c2ccccc2)[C@H]1[C@@H](C)O` (stereo partly specified), the GI50 with DLD-1, in the test with KM-20L2, in the test with LXFL 529, with M19-MEL, with SNB-78 and with XF498 was > 100 µM (inactive) in each case.

As to `CN(C)CCCN1N=Nc2cccc3cccc1c23`, the GI50 in the test with DLD-1 was > 60.1 µM (inactive); in the test on DMS-114 it was > 42.1 µM (inactive); in the test on HOP-18, 99.3 µM (inactive); in the test on KM-20L2, 54.3 µM (inactive); in the test on LXFL 529 it was > 50.9 µM (inactive); in the test on M19-MEL it was > 51.4 µM (inactive). In addition, the GI50 in the test with RXF 631 was 87.5 µM (inactive); in the test with SNB-78, 62.4 µM (inactive); in the test with XF498, 86.9 µM (inactive).

With `C=CCn1c(=S)sc2c(C(=O)OCC)c3c(C)cc(C)cn3c2c1=O`, the GI50 with DLD-1, in the test on KM-20L2, with LXFL 529, with M19-MEL and in the test on SNB-78 was > 100 µM (inactive) each time.

Regarding `O=C1C(Br)=CC2(C=C1Br)CCNC1=C2C(=O)c2ccccc2C1=O`, the GI50 in the test on DLD-1 is 9.25 µM (inactive); in the test with DMS-114, 5.7 µM (inactive); in the test on HOP-18, 32.2 µM (inactive); in the test with KM-20L2, 7.41 µM (inactive); with LXFL 529 it was 5.37 µM (inactive); with M19-MEL it was 4.66 µM (inactive). Further, the values for the GI50 in the test on RXF 631 and in the test on SNB-78 were 5.69 µM (inactive) and 11.2 µM (inactive), respectively.

For `CCC(/C=C/C1OC(=O)C=CC1C)=C\C(C)C/C=C/C(C)=C/C(C)C(=O)C(C)C(O)C(C)C/C(C)=C/C(=O)O` (stereo unspecified), the GI50 was 1.43 µM (inactive) in the test with DLD-1; 0.847 µM (active) with DMS-114; 6.04 µM (inactive) with HOP-18; 4.13 µM (inactive) with KM-20L2; 1.16 µM (inactive) with M19-MEL; 3.21 µM (inactive) with SNB-78.

For `Nc1ncnc2c1ncn2CCCC(c1ccccc1)P(=O)(O)O` (stereo unspecified), the GI50 in the test with DLD-1, with DMS-114, with KM-20L2, with LXFL 529, in the test with M19-MEL and with SNB-78 was > 100 µM (inactive) in each case. Further, the GI50 in the test on XF498 was > 100 µM (inactive).

Turning to `COc1cccc(C2c3cc4c(cc3OC(O)(CO)C2C(=O)O)OCO4)c1.COc1cccc(C2c3cc4c(cc3OC3(O)COC(=O)C23)OCO4)c1` (stereo unspecified), the GI50 was 48.9 µM (inactive) with DLD-1; 49.4 µM (inactive) in the test with DMS-114; > 100 µM (inactive) with HOP-18; > 100 µM (inactive) with KM-20L2; 57.9 µM (inactive) in the test with LXFL 529; 76.9 µM (inactive) with M19-MEL. In addition, the GI50 with RXF 631 was 75.5 µM (inactive).

On to `Cc1nc(NC(=S)NC(=O)c2ccc(Cl)c(Cl)c2)sc1C(=O)/C=C/c1ccccc1[N+](=O)[O-]`, for which the GI50 with DLD-1 was 48.9 µM (inactive); in the test with HOP-18 it was 12.4 µM (inactive); in the test with KM-20L2 it was 18.6 µM (inactive); in the test on LXFL 529, 21.6 µM (inactive); in the test with M19-MEL, 26.8 µM (inactive); in the test with RXF 631 it was 24.1 µM (inactive). The GI50 in the test with SNB-78 is 30.1 µM (inactive); in the test with XF498, 20.6 µM (inactive).

Consider `O=C1/C(=C/c2ccccc2)CN(C(=O)Oc2ccc([N+](=O)[O-])cc2)C/C1=C\c1ccccc1`, for which the GI50 in the test with DLD-1 was 1.79 µM (inactive); in the test on DMS-114, 2.11 µM (inactive); in the test with HOP-18, > 10 µM (inactive); with KM-20L2, 4.69 µM (inactive); in the test on LXFL 529 it was 2.02 µM (inactive); in the test with M19-MEL it was 1.77 µM (inactive). The GI50 is 5.16 µM (inactive) with SNB-78 and > 10 µM (inactive) in the test on XF498.

As to `Cc1nc(Nc2ccc(Cl)c(Cl)c2)sc1C(/C=C/c1ccc2c(c1)OCO2)=N/Nc1ccc([N+](=O)[O-])cc1[N+](=O)[O-]`, the GI50 is > 100 µM (inactive) in the test with DLD-1; 51.8 µM (inactive) with DMS-114; > 100 µM (inactive) in the test on KM-20L2; > 68.5 µM (inactive) in the test on LXFL 529; > 100 µM (inactive) with M19-MEL; 2.27 µM (inactive) in the test with SNB-78. Moreover, the GI50 in the test with XF498 is 13.9 µM (inactive).

As to `O=[N+]([O-])c1ccc(-c2ccc(/C=N/n3c(S)nnc3-c3ccc(Cl)cc3)o2)cc1`, the GI50 in the test on DLD-1 is 41.6 µM (inactive); with DMS-114, 95.3 µM (inactive); in the test on HOP-18 it was > 100 µM (inactive); with KM-20L2, 28 µM (inactive); with LXFL 529, 22.5 µM (inactive); in the test with M19-MEL, 21.1 µM (inactive). Further, the GI50 in the test with RXF 631 was > 37.4 µM (inactive); with SNB-78 it was > 50.6 µM (inactive); in the test with XF498, 19.5 µM (inactive).

As to `O=C(O)C#CCO`, the GI50 in the test with DMS-114, with LXFL 529, in the test on M19-MEL, in the test with RXF 631, with SNB-78 and in the test with XF498 was > 100 µM (inactive) throughout.

On to `COc1ccccc1NC(=O)C(CC(C(=O)Nc1ccccc1OC)/C(C)=N/NC(=O)c1ccccc1O)/C(C)=N/NC(=O)c1ccccc1O` (stereo unspecified), for which the GI50 was 57.5 µM (inactive) in the test with DLD-1; 70.8 µM (inactive) in the test on DMS-114; > 100 µM (inactive) in the test on KM-20L2; 66.4 µM (inactive) in the test with LXFL 529; > 100 µM (inactive) in the test on M19-MEL; 69.8 µM (inactive) with RXF 631. The GI50 in the test on SNB-78 and in the test with XF498 was > 100 µM (inactive) in each case.

As to `COc1ccc2c(=O)c(-c3cc(OC)c(OC)cc3OC)coc2c1`, the GI50 with DLD-1 was 3.95 µM (inactive); with DMS-114 it was 3.02 µM (inactive); with KM-20L2, 2.05 µM (inactive); in the test on LXFL 529, 6.27 µM (inactive); with M19-MEL, 4.15 µM (inactive); in the test on RXF 631 it was 5.4 µM (inactive). Moreover, the values for the GI50 with SNB-78 and in the test with XF498 were 4.21 µM (inactive) and 2.58 µM (inactive), respectively.

On to `COc1ccc(/C=C2\CCCCC2=O)cc1`, for which the GI50 in the test with DLD-1, in the test with DMS-114, in the test with HOP-18, in the test with KM-20L2, in the test on LXFL 529 and with M19-MEL was > 100 µM (inactive) in each case. Besides, the GI50 in the test on SNB-78 and in the test with XF498 was > 100 µM (inactive) throughout.

For `O=c1[nH]c2cc([N+](=O)[O-])ccc2nc1/C(=N/Nc1ccccc1)C(O)c1ccccc1Cl` (stereo unspecified), the GI50 in the test with DLD-1 was > 100 µM (inactive); with DMS-114, 6.75 µM (inactive); in the test with KM-20L2 it was 14.9 µM (inactive); in the test with LXFL 529 it was 28.1 µM (inactive); in the test with M19-MEL, 52.8 µM (inactive); with SNB-78 it was > 100 µM (inactive). In the test on XF498, the GI50 is > 100 µM (inactive).

Consider `Cc1cc(N(CCC#N)CCC#N)ccc1/C=C/C(=O)Nc1cccc(Cl)c1`, for which the GI50 was > 100 µM (inactive) in the test on DLD-1; > 100 µM (inactive) in the test on DMS-114; 87.1 µM (inactive) with KM-20L2; 29.7 µM (inactive) in the test on LXFL 529; > 100 µM (inactive) in the test on M19-MEL; > 100 µM (inactive) in the test on RXF 631. In addition, the GI50 in the test on XF498 is > 100 µM (inactive).

`N=C(N)NS(=O)(=O)c1ccc(NC(=O)c2cccc3c(Nc4ccc(S(=O)(=O)N=C(N)N)cc4)c4ccc(Cl)cc4nc23)cc1`: the GI50 was 67.1 µM (inactive) in the test with DLD-1; 31.2 µM (inactive) in the test on DMS-114; > 100 µM (inactive) with HOP-18; 74.8 µM (inactive) in the test on KM-20L2; 33 µM (inactive) with LXFL 529; 81.3 µM (inactive) in the test on SNB-78. Further, the GI50 in the test with XF498 was 67.3 µM (inactive).

For the molecule `Cc1ccc(Nc2nc(-c3ccc(-c4ccc([N+](=O)[O-])cc4)o3)cs2)cc1`, the GI50 was 41.4 µM (inactive) with DLD-1; 29.6 µM (inactive) in the test on KM-20L2; 29.3 µM (inactive) with LXFL 529; 51.2 µM (inactive) with M19-MEL; 66.5 µM (inactive) with SNB-78.

As to `CCOC(=O)C(=O)Nc1c(F)cc(F)cc1Br`, the GI50 in the test on DLD-1, with DMS-114, in the test with KM-20L2, in the test on LXFL 529, in the test with M19-MEL and in the test with SNB-78 was > 100 µM (inactive) in each case. Further, the GI50 with XF498 is > 100 µM (inactive).

In the case of `C/C(CC(=O)Nc1cc(C)ccc1C)=N/N=C(N)N`, the GI50 in the test with DLD-1, in the test on DMS-114, with KM-20L2, in the test on LXFL 529, in the test with M19-MEL and in the test with SNB-78 was > 100 µM (inactive) in each case. The GI50 with XF498 was > 100 µM (inactive).

These data come from ChEMBL document CHEMBL1201862, “PubChem BioAssay data set” (2004).
